The record followed here is ChEMBL document CHEMBL4145577, “Cytotoxic Anthracycline Metabolites from a Recombinant Streptomyces” (J Nat Prod, 2018).

By IC50 is commonly meant the point on the concentration scale where inhibition reaches its midpoint. Low values mean inhibition by little substance, high ones a need for much substance.

For one assay, the system named is MDA-MB-231. Kind of assay: Cytotoxicity against human MDA-MB-231 cells after 48 hrs by MTT assay. The format is functional, cell-based. To be noted: MDA-MB-231, 48 h.
The next assay deals with HCT-116. Nature of the assay: Cytotoxicity against human HCT116 cells after 48 hrs by MTT assay. The format is functional, cell-based. To be noted: HCT-116, 48 h. (Tetrazolium dyes change colour on reduction, which living cells bring about.)
A further assay deals with MCF-10A. Nature of the assay: Cytotoxicity against human MCF10A cells after 48 hrs by MTT assay. The format is cell-based.
The next assay concerns HepG2. Nature of the assay: Cytotoxicity against human HepG2 cells after 48 hrs by MTT assay. The format is functional, cell-based. Particulars: HepG2, 48 h.
For the next assay, the system named is MDA-MB-435. Nature of the assay: Cytotoxicity against human MDA-MB-435 cells after 48 hrs by MTT assay. The format is functional, cell-based. Particulars: MDA-MB-435, 48 h.
The next assay deals with NCI-H460. Kind of assay: Cytotoxicity against human NCI-H460 cells after 48 hrs by MTT assay. The format is functional, cell-based. Particulars: NCI-H460, 48 h.

For `CC[C@@]1(O)C[C@H](O[C@H]2C[C@H](O)[C@H](O[C@H]3C[C@H](O)[C@H](O[C@H]4C[C@H](O)[C@H](O)[C@H](C)O4)[C@H](C)O3)[C@H](C)O2)c2c(O)c3c(c(O)c2[C@H]1O)C(=O)c1cccc(O)c1C3=O`, the IC50 in the assay with MDA-MB-231 was 40.2 µM; with HCT-116, 9.8 µM; in the assay with MCF-10A, 3.7 µM; with HepG2 it was 8 µM; in the assay on MDA-MB-435, 7 µM; in the assay with NCI-H460, 4.8 µM.

As to `CC[C@@]1(O)C[C@H](O[C@H]2C[C@H](O)[C@H](O[C@H]3CC[C@H](O[C@H]4CC[C@H](O)[C@H](C)O4)[C@H](C)O3)[C@H](C)O2)c2c(O)c3c(c(O)c2[C@H]1O)C(=O)c1cccc(O)c1C3=O`, the IC50 in the assay on MDA-MB-231 turned out to be 10.4 µM; with HCT-116 it was 32.8 µM; in the assay with MCF-10A, 5.2 µM; in the assay on HepG2 it was 5.5 µM; with MDA-MB-435, 11.7 µM; in the assay with NCI-H460 it was 1.3 µM.

Regarding `CC[C@]1(O)Cc2c(O)c3c(c(O)c2[C@@H](O[C@H]2C[C@H](O)[C@H](O[C@H]4C[C@H](O)[C@H](O[C@H]5CC[C@H](O)[C@H](C)O5)[C@H](C)O4)[C@H](C)O2)C1)C(=O)c1c(O)cccc1C3=O`, the IC50 is above 50 µM in the assay on MDA-MB-231; 3.1 µM in the assay with HCT-116; 16.9 µM in the assay on MCF-10A; 11.3 µM in the assay on HepG2; 6.2 µM in the assay on MDA-MB-435; 0.9 µM with NCI-H460.

Take `CC[C@@]1(O)C[C@H](O[C@H]2CC[C@H](O[C@H]3CC[C@H](O[C@H]4CC[C@H](O)[C@H](C)O4)[C@H](C)O3)[C@H](C)O2)c2c(O)c3c(c(O)c2[C@H]1C(=O)OC)C(=O)c1cccc(O)c1C3=O`: the concentration for half-maximal inhibition (IC50) was 4.5 µM in the assay on MDA-MB-231; 0.2 µM with HCT-116; 1.4 µM in the assay with MCF-10A; 1.7 µM in the assay with HepG2; 2.7 µM in the assay with MDA-MB-435; 10 µM in the assay with NCI-H460.

Regarding `CC[C@@]1(O)C[C@H](O[C@H]2CC[C@H](O[C@H]3C[C@H](O)[C@H](O[C@H]4CC[C@H](O)[C@H](C)O4)[C@H](C)O3)[C@H](C)O2)c2c(O)c3c(c(O)c2[C@H]1O)C(=O)c1cccc(O)c1C3=O`, the IC50 in the assay with MDA-MB-231 was 24.5 µM; in the assay with HCT-116, 6.1 µM; in the assay on MCF-10A, 6.7 µM; in the assay on HepG2, 5.7 µM; in the assay on MDA-MB-435, 3.1 µM; in the assay on NCI-H460, 1.6 µM.

For `CC[C@@]1(O)C[C@H](O[C@H]2C[C@H](O)[C@H](O[C@H]3C[C@H](O)[C@H](O[C@H]4CC[C@H](O)[C@H](C)O4)[C@H](C)O3)[C@H](C)O2)c2c(O)c3c(c(O)c2[C@H]1O)C(=O)c1cccc(O)c1C3=O`, the IC50 came to 7.4 µM in the assay with MDA-MB-231; 5 µM in the assay on HCT-116; 3.4 µM in the assay on MCF-10A; 1.5 µM in the assay on HepG2; 0.7 µM with NCI-H460.

For `CC[C@]1(O)Cc2c(O)c3c(c(O)c2[C@@H](O[C@H]2C[C@H](O)[C@H](O[C@H]4CC[C@H](O[C@H]5CC[C@H](O)[C@H](C)O5)[C@H](C)O4)[C@H](C)O2)C1)C(=O)c1c(O)cccc1C3=O`, the IC50 with MDA-MB-231 was above 50 µM; with HCT-116 it was 0.3 µM; with MCF-10A it was 2.2 µM; in the assay with HepG2 it was 8.6 µM; with MDA-MB-435 it was 4.2 µM; in the assay on NCI-H460 it was 5.4 µM.

`CC[C@@]1(O)C[C@H](O[C@H]2C[C@H](O)[C@H](O[C@H]3C[C@H](O)[C@H](O)[C@H](C)O3)[C@H](C)O2)c2c(O)c3c(c(O)c2[C@H]1O)C(=O)c1cccc(O)c1C3=O`: the IC50 in the assay on MDA-MB-231 amounted to 10.2 µM; with HCT-116 it was 13.2 µM; in the assay with MCF-10A, 2.5 µM; in the assay on HepG2, 2 µM; with NCI-H460 it was 0.6 µM.

In the case of `COc1cccc2c1C(=O)c1c(O)c3c(c(O)c1C2=O)C[C@@](O)(C(=O)CO)C[C@@H]3O[C@H]1C[C@H](N)[C@@H](O)[C@H](C)O1` [EPIRUBICIN], the IC50 with MDA-MB-231 came out at 0.9 µM; with HCT-116, 0.4 µM; in the assay with MCF-10A, 0.1 µM; in the assay with MDA-MB-435 it was 0.7 µM; in the assay on NCI-H460, 0.02 µM.

With `CC[C@@]1(O)C[C@H](O[C@H]2CC[C@H](O[C@H]3C[C@H](O)[C@H](O[C@H]4CC[C@H](O)[C@H](C)O4)[C@H](C)O3)[C@H](C)O2)c2c(O)c3c(c(O)c2[C@H]1C(=O)OC)C(=O)c1cccc(O)c1C3=O`, the IC50 in the assay on MDA-MB-231 worked out at 9.3 µM; in the assay on HCT-116 it was 3.6 µM; in the assay on MCF-10A, 4.6 µM; in the assay on HepG2 it was 6.4 µM; in the assay with MDA-MB-435 it was 1.9 µM; in the assay with NCI-H460 it was 5.7 µM.

As for `CC[C@@]1(O)C[C@H](O[C@H]2C[C@H](O)[C@H](O[C@H]3C[C@H](O)[C@H](O[C@H]4CCC(=O)[C@H](C)O4)[C@H](C)O3)[C@H](C)O2)c2c(O)c3c(c(O)c2[C@H]1O)C(=O)c1cccc(O)c1C3=O`, the IC50 was 5.4 µM with MDA-MB-231; 1.4 µM in the assay on HCT-116; 2 µM with MCF-10A; 0.9 µM in the assay with HepG2; 5.6 µM in the assay on MDA-MB-435; 0.38 µM with NCI-H460.

With `CC[C@@]1(O)C[C@H](O[C@H]2C[C@H](O)[C@H](O[C@H]3CC[C@H](O[C@H]4CC[C@H](OC5CC[C@H](O)[C@H](C)O5)[C@H](C)O4)[C@H](C)O3)[C@H](C)O2)c2c(O)c3c(c(O)c2[C@H]1O)C(=O)c1cccc(O)c1C3=O` (stereo partly drawn), the IC50 in the assay on MDA-MB-231 stood at 10.1 µM; in the assay with HCT-116, 7.2 µM; with MCF-10A, 5.7 µM; in the assay on HepG2, 8.5 µM; with MDA-MB-435, 37.9 µM; in the assay with NCI-H460 it was 2.2 µM.

With `CC[C@@]1(O)C[C@H](O[C@H]2CC[C@H](O[C@H]3C[C@H](O)[C@H](O[C@H]4CCC(=O)[C@H](C)O4)[C@H](C)O3)[C@H](C)O2)c2c(O)c3c(c(O)c2[C@H]1O)C(=O)c1cccc(O)c1C3=O`, the IC50 with MDA-MB-231 worked out at 23.9 µM; in the assay with HCT-116 it was 5.4 µM; in the assay on MCF-10A it was 10.4 µM; with HepG2 it was 9.3 µM; with MDA-MB-435 it was 3.9 µM; with NCI-H460, 2.4 µM.

Turning to `CC[C@@]1(O)C[C@H](O[C@H]2C[C@H](O)[C@H](O[C@H]3CC[C@H](O[C@H]4C[C@H](O)[C@H](O)[C@H](C)O4)[C@H](C)O3)[C@H](C)O2)c2c(O)c3c(c(O)c2[C@H]1O)C(=O)c1cccc(O)c1C3=O`, the IC50 in the assay with MDA-MB-231 turned out to be 19.2 µM; with HCT-116, 5.8 µM; with MCF-10A, 10.5 µM; with HepG2, 6.2 µM; in the assay with MDA-MB-435 it was 5.9 µM; in the assay on NCI-H460, 2.6 µM.

As for `CC[C@@]1(O)C[C@H](O)c2c(O)c3c(c(O)c2[C@H]1C(=O)OC)C(=O)c1cccc(O)c1C3=O`, the IC50 with MDA-MB-231 stood at 13.2 µM; in the assay with HCT-116 it was 9.6 µM; with MCF-10A it was 7.1 µM; in the assay on HepG2, 13.5 µM; in the assay with MDA-MB-435, 9.2 µM; in the assay with NCI-H460 it was 10 µM.

`CC[C@@]1(O)CCc2c(O)c3c(c(O)c2[C@H]1O)C(=O)c1cccc(O)c1C3=O`: the IC50 came out at 10.9 µM in the assay on MDA-MB-231; 6 µM with HCT-116; 11.9 µM in the assay with MCF-10A; 13 µM in the assay on HepG2; 5.7 µM in the assay on MDA-MB-435; 7.3 µM with NCI-H460.
